Source: patent US9751846B2, “Method for producing 1,4-benzoxazine compound” (MITSUBISHI TANABE PHARMA CORPORATION, priority 2012, dated 2017)
“Also recorded” adds a separate entry of the source.

Tests used:
[1] = stability of the crystal form (transition by heating, thermostability); format: physicochemical; conditions: for stability of the crystal: general statement
[2] = hygroscopicity of the crystal form; format: physicochemical
[3] = stability of the crystal in a formulation; format: physicochemical
mutagenicity (AMES test) = format: cell-based

Row | stability of the crystal [1] | SMILES | hygroscopicity [2] | also measured
1 | highly stable | CC1(C)Oc2cc(NS(C)(=O)=O)ccc2N(c2ccc(F)cc2)C1=O [Form A crystal, N-[4-(4-fluorophenyl)-2,2-dimethyl-3-oxo-3,4-dihydro-2H-1,4-benzoxazin-7-yl]methanesulfonamide] | low hygroscopicity; also recorded: non-hygroscopic | transition to amorphous state or other crystal form by heating ([1]; heating): hardly makes a transition to other crystal form by heating; also recorded: does not transform to an amorphous state or other crystal form; stability in a formulation [3]: high stability in a formulation; also recorded: highly stable in a formulation
2 | highly stable | CC1(C)Oc2cc(NS(C)(=O)=O)ccc2N(c2ccc(F)cc2)C1=O [Form B crystal, N-[4-(4-fluorophenyl)-2,2-dimethyl-3-oxo-3,4-dihydro-2H-1,4-benzoxazin-7-yl]methanesulfonamide] | low hygroscopicity | thermostability ([1]; as compared to the Form D crystal of Patent Literature 1): higher thermostability
3 | highly stable | CC1(C)Oc2cc(NS(C)(=O)=O)ccc2N(c2ccc(F)cc2)C1=O [Form C crystal, N-[4-(4-fluorophenyl)-2,2-dimethyl-3-oxo-3,4-dihydro-2H-1,4-benzoxazin-7-yl]methanesulfonamide] |  | 
4 |  | CC1(C)Oc2cc(N(S(C)(=O)=O)S(C)(=O)=O)ccc2N(c2ccc(F)cc2)C1=O [compound [c], N-[4-(4-fluorophenyl)-2,2-dimethyl-3-oxo-3,4-dihydro-2H-1,4-benzoxazin-7-yl]-N-(methylsulfonyl)methanesulfonamide] |  | mutagenicity (mutagenicity (AMES test); test not named at this place, synthetic intermediate of the new route): lower mutagenicity
5 |  | CC1(C)Oc2cc(N)ccc2N(c2ccc(F)cc2)C1=O [intermediate (2), 7-amino-4-(4-fluorophenyl)-2,2-dimethyl-2H-1,4-benzoxazin-3(4H)-one] |  | mutagenicity by the AMES test (mutagenicity (AMES test); synthetic intermediate of the Patent Literature 1 route): strong mutagenicity
